Data reported in patent publication US20060147411A1, “Novel compounds for the treatment of sickle cell disease” (University of Maryland, Baltimore, priority 2003, published 2006).
Blank lines part the entries; values can stand above or below the molecule they belong to.

Columns and labels:
cytochrome b5 [1] = settings: read-out: affinity of binding to cytochrome b5; cited from earlier work
cytochrome b5 [2] = biological target: cytochrome b5 (Rattus norvegicus, UniProt P00173); assay: HSQC perturbation mapping: concentration dependence of hexacyclen-induced heteronuclear correlation peak shifts; type: binding; settings: 1H-15N HSQC peak shifts, hexacyclen 0.5 to 8 mM, pH 7.0, 1 mM phosphate buffer, 40° C; read-out: dissociation constant
cytochrome b5 (Rattus norvegicus, UniProt P00173), sequence (P00173 whole entry): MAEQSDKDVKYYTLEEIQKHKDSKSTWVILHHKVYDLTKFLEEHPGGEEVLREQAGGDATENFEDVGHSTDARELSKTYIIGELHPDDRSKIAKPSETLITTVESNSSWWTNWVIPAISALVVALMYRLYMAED
Protocol: Hexacyclen (1,4,7,10,13,16-hexaazacyclooctadecane)(Richman, J. E.; Atkins, T. J. 1974, J. Am. Chem. Soc., 96, 2268-2269) binds to cytochrome b5 such the HSQC spectra of cytochrome b5-hexacyclen is similar to the HSQC spectra of cytochrome b5-hemoglobin. The concentration dependence of hexacyclen-induced heteronuclear correlation peak shifts indicates a dissociation constant of roughly 2 mM. FIG. 2 illustrates the heteronuclear correlation spectra (HSQC spectra) of a 2 mM solution of cytochrome b5 by itself (black contours) and that of a solution containing 2 mM cytochrome b5 and 4 mM hexacyclen (gray contours). The inset in the upper left hand corner of the figure contains a plot of the hexacyclen dependence of the shifts in the peak to peak separation of aspartate 60 (D60) at concentrations of hexacylen ranging from 0.5 to 8 mM. The inset at the upper right is a model for the interaction of hexacyclen based on the shifts observed in the HSQC perturbation study. Solutions were buffered to a pH of 7.0 with 1 mM phosphate buffer and the spectra were recorded at 40° C. […]
The binding of the R1 and R3 moieties to cytochrome b5 is characterized using HSQC perturbation mapping experiments. […] Solutions were buffered to a pH of 7.0 with 1 mM phosphate buffer and the spectra were recorded at 40° C. […]

sickle cell patients = settings: nearly 300 sickle cell patients; cited from earlier work

SMILES: Nc1ncnc2c1ncn2[C@H]1O[C@@H](COP(=O)(O)OP(=O)(O)OP(=O)(O)O)C(O)C1O (stereo partly drawn) [ATP, Adenosine 5′-triphosphate]
- Kd (cytochrome b5 [1]): 0.18 mM

- Kd (cytochrome b5 [2]): ~2 mM
SMILES: C1CNCCNCCNCCNCCNCCN1 [Hexacyclen, 1,4,7,10,13,16-hexaazacyclooctadecane]

SMILES: NC(=O)NO [hydroxyurea]
- occurrence of vaso-occlusive crises, reduced to % of that observed (sickle cell patients): roughly 50%
